Converted amounts (≈) assume the structure as drawn.

The conditions of the data set: buffer; pH 7.4; 200.0 µM.
Turning to `CCn1c(Cc2ccc(OC)cc2)nc2ccccc21`, the kinetic solubility is more than 40 µg/mL. As for `O=S(=O)(NCc1cccnc1)c1ccc2ccccc2c1`, the figure is 41.3 µg/mL (≈ 138 µM).

Compound `O=C(O)CSc1nc2ccccc2nc1Cc1ccccc1F` had a kinetic solubility of 47.7 µg/mL (≈ 145 µM). As for `Cc1ccc2[nH]c3c(c2c1)SC(C)(C)CC3=O`, the figure is 0.8 µg/mL (≈ 3.26 µM); as for `O=C(NC(=S)NC1CCCCC1)c1ccccc1[N+](=O)[O-]`, 3 µg/mL (≈ 9.76 µM); as for `CCC(=O)Nc1ccc2c(c1)nc(CN1CCCCC1)n2C`, more than 45.1 µg/mL. In turn, `Cc1cc(C)cc(N=C2NC(=O)CS2)c1` displayed a solubility (kinetic) of more than 33 µg/mL. `COc1ccc(CNc2ccc([N+](=O)[O-])cn2)cc1`: the solubility (kinetic) worked out at 3 µg/mL (≈ 11.6 µM). `O=C(Nc1cccc(Cl)c1)NC1CC2CCC1C2` (stereo unspecified) displayed a solubility (kinetic) of 1.1 µg/mL (≈ 4.15 µM). As for `CCOP(=O)(OCC)/C(=N/OC(=O)c1cccc([N+](=O)[O-])c1)C(N)=O`, the figure is 55 µg/mL (≈ 147 µM); as for `OCCNC(=S)c1ccccc1`, 25.7 µg/mL (≈ 142 µM). The result for `CC(=O)OC1CCC2(/C=N/O)C(=CCC3C4CCC(=O)C4(C)CCC32)C1` (stereo unspecified) reads more than 53.9 µg/mL. The result for `COc1ccccc1C(C[N+](=O)[O-])c1c(N)n(C)c(=O)n(C)c1=O` (stereo unspecified) reads more than 50.1 µg/mL; that for `N#Cc1c(C(F)(F)F)cc(=O)[nH]c1SCC(=O)O`, more than 41.7 µg/mL.

The compound `Cc1c(C(=O)O)sc2c1c(=O)n(Cc1ccccc1)c(=O)n2C` yielded a solubility (kinetic) of more than 49.6 µg/mL. As for `NC1=NC(c2cccnc2)n2c(nc3ccccc32)N1` (stereo unspecified), the figure is more than 39.6 µg/mL. As to `Cc1ccccc1CN1C(=O)c2ccccc2S1(=O)=O`, the solubility (kinetic) worked out at 2.5 µg/mL (≈ 8.7 µM). `Cc1ccc(NC(=O)N2CCc3ccccc3C2)cc1C`: the kinetic solubility stood at 0.9 µg/mL (≈ 3.21 µM). As for `O=C1CN(C(=O)/C=C/c2ccc(Cl)cc2Cl)CCN1`, the figure is 44.2 µg/mL (≈ 148 µM); as for `O=C(CCCc1ccccc1)Nc1ccc(Br)cc1F`, less than 0.7 µg/mL; as for `O=C(NC(=S)NC1CCCc2ccccc21)c1ccc(F)cc1` (stereo unspecified), less than 0.4 µg/mL.

`CC(OC(=O)c1cccs1)C(=O)NCCc1ccccc1` (stereo unspecified) registered a solubility (kinetic) of more than 45.5 µg/mL. The compound `COc1ccc2[nH]c(C)c(-c3csc(N)n3)c2c1` returned a solubility (kinetic) of 31.3 µg/mL (≈ 121 µM).

Turning to `Cc1ccc(NC(=O)CCn2cnc3ccccc3c2=O)c(C)c1`, the solubility (kinetic) came to 13.7 µg/mL (≈ 42.6 µM). The compound `O=c1[nH]c(=S)n(C2CC2)c(O)c1C=NCCN1CCOCC1` yielded a solubility (kinetic) of more than 48.7 µg/mL. The compound `COc1ccc(-c2csc(NC(=O)CN3C(=O)C4CC=CCC4C3=O)n2)cc1OC` (stereo unspecified) came in with a solubility (kinetic) of 16 µg/mL (≈ 37.4 µM).

In the case of `CC(C)CC(=O)NC(C)C(c1cccs1)N1CCOCC1` (stereo unspecified), the solubility (kinetic) is 45.4 µg/mL (≈ 146 µM). The result for `CCCCC1C2C(=O)N(c3ccccc3)C(=O)C2ON1c1ccccc1` (stereo unspecified) reads 49.1 µg/mL (≈ 140 µM); that for `CN1CCN(c2ncnc(Cl)c2N)CC1`, more than 34.2 µg/mL.

In the case of `CC(CN1CCC(O)CC1)c1ccccc1` (stereo unspecified), the kinetic solubility was determined as 26.6 µg/mL (≈ 121 µM). The result for `CC(C)(C)NC(=O)NC(=O)COC(=O)CNC(=O)C1CCCCC1` reads 40.9 µg/mL (≈ 120 µM). The result for `O=C(c1ccccc1)c1ccc(-n2ccnc2)c([N+](=O)[O-])c1` reads 34.4 µg/mL (≈ 117 µM). The result for `Cc1ccccc1-c1nc2sc(C)c(C)c2c(=O)o1` reads less than 0.6 µg/mL. `Cc1noc(C)c1C(=O)N1CCC(C(=O)c2ccccc2)CC1` displayed a kinetic solubility of 41.8 µg/mL (≈ 134 µM). For `CCOc1cccc2sc(=NC(=O)c3ccco3)n(CC(=O)OC)c12`, the kinetic solubility came to 2 µg/mL (≈ 5.55 µM). Compound `CC1CCC(NC(=O)CC(NC(N)=O)c2ccccc2Cl)CC1` (stereo unspecified) yielded a kinetic solubility of 46.6 µg/mL (≈ 138 µM). As for `CC(C)(C)c1ccc(C(=O)NCCN2CCOCC2)cc1`, the figure is more than 43.6 µg/mL; as for `COc1ccccc1/C=C/C(=O)OC(C)CN1CCCCC1.Cl` (stereo unspecified), more than 51 µg/mL. The result for `NS(=O)(=O)c1ccc(F)c(C(=O)O)c1` reads more than 32.9 µg/mL; that for `CCOC(=O)c1cc(NC(=O)CCC(=O)O)ccc1N1CCCCC1`, 51.3 µg/mL (≈ 147 µM); that for `O=C(NCc1ccco1)C1CC(=O)N(c2cccc(Cl)c2)C1` (stereo unspecified), 39.7 µg/mL (≈ 125 µM).

The solubility (kinetic) is the concentration staying in solution when a stock, usually in DMSO, is diluted into the medium.

Values taken from PubChem BioAssay AID1996.
